Source: US20160002267A1, “BENZYL-SUBSTITUTED PYRAZOLOPYRIDINES AND USE THEREOF” (BAYER PHARMA AKTIENGESELLSCHAFT, priority 2013, published 2016)

Test system: conscious spontaneously hypertensive rats
Assay: Radiotelemetric measurement of blood pressure on conscious spontaneously hypertensive rats
Assay type: in vivo, rat
Details: SHR
Excerpt: A commercially available telemetry system from DATA SCIENCES INTERNATIONAL DSI, USA, is employed for the blood pressure measurement on conscious rats described below.
The system consists of 3 main components: • implantable transmitters (Physiotel® telemetry transmitter) • receivers (Physiotel® receiver) which are linked via a multiplexer (DSI Data Exchange Matrix) to a • data acquisition computer.
The telemetry system makes it possible to continuously record blood pressure, heart rate and body motion of conscious animals in their usual habitat.
The investigations are carried out on adult female spontaneously hypertensive rats (SHR Okamoto) with a body weight of >200 g. SHR/NCrl from the Okamoto Kyoto School of Medicine, 1963 were a cross of male Wistar Kyoto rats with highly elevated blood pressure and female rats having a slightly elevated blood pressure and at F13 handed over to the U.S. National Institutes of Health.
After transmitter implantation, the experimental animals are housed singly in type 3 Makrolon cages. They have free access to standard feed and water.
The day/night rhythm in the experimental laboratory is changed by the room lighting at 6.00 am and at 7.00 pm.
The telemetry transmitters TA11 PA-C40 used are surgically implanted under aseptic conditions in the experimental animals at least 14 days before the first experimental use. The animals instrumented in this way can be employed repeatedly after the wound has healed and the implant has settled.
Initiation of anaesthesia gas O2+N2O […] with 5% isofluran in a through-flow vessel.
After the anaesthesia has been initiated, the animal is connected to the anaesthesia mask on a thermal plate and receives 1.8% isofluran for anaesthesia maintenance and is shaved and disinfected over a large area of its abdomen. After the abdominal cavity has been opened along the linea alba, the liquid-filled measuring catheter of the system is inserted into the descending aorta in the cranial direction above the bifurcation and fixed with tissue glue (VetBonD™, 3M). The transmitter housing is fixed intraperitoneally to the abdominal wall muscle, and layered closure of the wound is performed.
An antibiotic (Oxytetracyclin® 10%, 60 mg/kg s.c., 0.06 ml/100 g body weight, Beta-Pharma GmbH & Co, Germany) and an analgesic (Rimadyl®, 4 mg/kg s.c., Pfizer, Germany) are administered postoperatively for prophylaxis of infection.
Unless indicated otherwise, the substances to be investigated are administered orally by gavage in each case to a group of animals (n=6). The test substances are dissolved in suitable solvent mixtures, or suspended in 0.5% strength Tylose, appropriate for an administration volume of 2 ml/kg of body weight.
A solvent-treated group of animals is employed as control.
The telemetry measuring unit present is configured for 24 animals. Each experiment is recorded under an experiment number (Vyear month day).
Each of the instrumented rats living in the system is assigned a separate receiving antenna (1010 Receiver, DSI).
The implanted transmitters can be activated externally by means of an incorporated magnetic switch and are switched to transmission in the run-up to the experiment. The signals emitted can be detected online by a data acquisition system (Dataquest™ A.R.T. for WINDOWS, DSI) and processed accordingly. The data are stored in each case in a file created for this purpose and bearing the experiment number.
In the standard procedure, the following are measured for 10-second periods in each case: • systolic blood pressure (SBP) • diastolic blood pressure (DBP) • mean arterial pressure (MAP) • heart rate (HR) • activity (ACT).
The acquisition of measurements is repeated under computer control at 5-minute intervals. The source data obtained as absolute value are corrected in the diagram with the currently measured barometric pressure (Ambient Pressure Reference Monitor; APR-1) and stored as individual data. […]

SMILES: CC1(C(F)(F)F)C(=O)Nc2nc(-c3nn(Cc4ccccc4F)c4ncc(F)cc34)nc(NCCC(F)(F)F)c21 (single isomer, unassigned) [Example 1-1, 2-[5-Fluoro-1-(2-fluorobenzyl)-1H-pyrazolo[3,4-b]pyridin-3-yl]-5-methyl-5-(trifluoromethyl)-4-[(3,3,3-trifluoropropyl)amino]-5,7-dihydro-6H-pyrrolo[2,3-d]pyrimidin-6-one]
- Mean blood pressure (0.03 mg/kg, 0 hours after administration of substance): 140.3 mmHg
- Mean blood pressure (0.03 mg/kg, 1 hours after administration of substance): 124.4 mmHg
- Mean blood pressure (0.03 mg/kg, 2 hours after administration of substance): 125.2 mmHg
- Mean blood pressure (0.03 mg/kg, 3 hours after administration of substance): 120.6 mmHg
- Mean blood pressure (0.03 mg/kg, 4 hours after administration of substance): 124.2 mmHg
- Mean blood pressure (0.03 mg/kg, 5 hours after administration of substance): 119.2 mmHg
- Mean blood pressure (0.03 mg/kg, 6 hours after administration of substance): 122.4 mmHg
- Mean blood pressure (0.03 mg/kg, 7 hours after administration of substance): 124.8 mmHg
- Mean blood pressure (0.03 mg/kg, 8 hours after administration of substance): 129.0 mmHg
- Mean blood pressure (0.03 mg/kg, 9 hours after administration of substance): 132.2 mmHg
- Mean blood pressure (0.03 mg/kg, 10 hours after administration of substance): 126.0 mmHg
- Mean blood pressure (0.03 mg/kg, 11 hours after administration of substance): 119.8 mmHg
- Mean blood pressure (0.03 mg/kg, 12 hours after administration of substance): 134.4 mmHg
- Mean blood pressure (0.03 mg/kg, 13 hours after administration of substance): 130.0 mmHg
- Mean blood pressure (0.03 mg/kg, 14 hours after administration of substance): 131.4 mmHg
- Mean blood pressure (0.03 mg/kg, 15 hours after administration of substance): 133.6 mmHg
- Mean blood pressure (0.03 mg/kg, 16 hours after administration of substance): 120.6 mmHg
- Mean blood pressure (0.03 mg/kg, 17 hours after administration of substance): 135.4 mmHg
- Mean blood pressure (0.03 mg/kg, 18 hours after administration of substance): 131.6 mmHg
- Mean blood pressure (0.03 mg/kg, 19 hours after administration of substance): 123.2 mmHg
- Mean blood pressure (0.03 mg/kg, 20 hours after administration of substance): 123.4 mmHg
- Mean blood pressure (0.03 mg/kg, 21 hours after administration of substance): 125.4 mmHg
- Mean blood pressure (0.03 mg/kg, 22 hours after administration of substance): 134.2 mmHg
- Mean blood pressure (0.03 mg/kg, 23 hours after administration of substance): 132.0 mmHg
- Mean blood pressure (0.03 mg/kg, 24 hours after administration of substance): 126.8 mmHg
- Mean blood pressure (0.3 mg/kg p.o., 0 hours after administration of substance): 144.2 mmHg
- Mean blood pressure (0.3 mg/kg p.o., 1 hours after administration of substance): 128.5 mmHg
- Mean blood pressure (0.3 mg/kg p.o., 2 hours after administration of substance): 116.7 mmHg
- Mean blood pressure (0.3 mg/kg p.o., 3 hours after administration of substance): 112.8 mmHg
- Mean blood pressure (0.3 mg/kg p.o., 4 hours after administration of substance): 114.3 mmHg
- Mean blood pressure (0.3 mg/kg p.o., 5 hours after administration of substance): 109.3 mmHg
- Mean blood pressure (0.3 mg/kg p.o., 6 hours after administration of substance): 110.2 mmHg
- Mean blood pressure (0.3 mg/kg p.o., 7 hours after administration of substance): 113.5 mmHg
- Mean blood pressure (0.3 mg/kg p.o., 8 hours after administration of substance): 114.2 mmHg
- Mean blood pressure (0.3 mg/kg p.o., 9 hours after administration of substance): 114.5 mmHg
- Mean blood pressure (0.3 mg/kg p.o., 10 hours after administration of substance): 109.5 mmHg
- Mean blood pressure (0.3 mg/kg p.o., 11 hours after administration of substance): 118.2 mmHg
- Mean blood pressure (0.3 mg/kg p.o., 12 hours after administration of substance): 110.5 mmHg
- Mean blood pressure (0.3 mg/kg p.o., 13 hours after administration of substance): 115.5 mmHg
- Mean blood pressure (0.3 mg/kg p.o., 14 hours after administration of substance): 117.8 mmHg
- Mean blood pressure (0.3 mg/kg p.o., 15 hours after administration of substance): 114.5 mmHg
- Mean blood pressure (0.3 mg/kg p.o., 16 hours after administration of substance): 118.2 mmHg
- Mean blood pressure (0.3 mg/kg p.o., 17 hours after administration of substance): 122.7 mmHg
- Mean blood pressure (0.3 mg/kg p.o., 18 hours after administration of substance): 127.8 mmHg
- Mean blood pressure (0.3 mg/kg p.o., 19 hours after administration of substance): 121.0 mmHg
- Mean blood pressure (0.3 mg/kg p.o., 20 hours after administration of substance): 110.5 mmHg
- Mean blood pressure (0.3 mg/kg p.o., 21 hours after administration of substance): 113.3 mmHg
- Mean blood pressure (0.3 mg/kg p.o., 22 hours after administration of substance): 116.7 mmHg
- Mean blood pressure (0.3 mg/kg p.o., 23 hours after administration of substance): 115.7 mmHg
- Mean blood pressure (0.3 mg/kg p.o., 24 hours after administration of substance): 123.7 mmHg
